Measurements published in patent publication EP2574333B1, “N-acetylcysteine effervescent tablet and its therapeutical applications” (Friulchem SpA, priority 2011, dated 2013).
Read-outs that look alike come from different tables or passages of the source.

Experiments:
[1] = Chronic toxicity in rats (NOEL); format: in vivo; details: oral route, 60 kg
[2] = in vivo, iv
[3] = human, intravenous route; cited from earlier work
[4] = rats, intraperitoneal route; cited from earlier work
[5] = mouse, cited from earlier work
[6] = chronic toxicity in rats, for 12 months; cited from earlier work
[7] = cited from earlier work
[8] = system: Glutathione (GSH); details: cited from earlier work
[9] = 11,195 cases of suspected acetaminophen overdose reviewed; cited from earlier work

In the case of CC(=O)N[C@@H](CS)C(=O)O [NAC, N-acetylcysteine], the “1200 mg dose (20 mg/kg) referred to NOEL in rats” value [1] is given as 50 times less, the “1200 mg dose (20 mg/kg) referred to TDLO in human” value [2] is given as “about 10 times less” and the “Toxic Dose Low (TDLO)” value [3] is given as 150 to 200 mg/kg. For the same compound, the “Toxic Dose Low (TDLO)” value [4] was 150 to 200 mg/kg, the “Toxic Dose Low (TDLO)” value ([5]; intraperitoneal route) was 408 to 450 mg/kg and the “Toxic Dose Low (TDLO)” value ([5]; oral route) was 300 mg/kg. For the same compound, the “no observed effect level (NOEL) dose” value [6] was “about 1000 mg/kg/day”, the plasma half-life ([7]; after oral administration) was 6.3 h and the “time at which maximum plasma concentration is reached” value ([7]; after oral administration) was 2 to 3 h. The “NAC in plasma or bronchoalveolar lavage fluid” value ([7]; following oral administration for 4-14 days) was “cannot be detected”, the bioavailability ([7]; oral, unchanged molecule) was “about 10%” and the “cysteine and GSH levels in plasma and lung” value ([8]; NAC 600 mg once daily) was “increased transiently”. The “plasma concentration of Glutathione (GSH)” value ([8]; patients with COPD, 600 mg once daily) was “unchanged”, the “plasma GSH levels” value ([8]; patients with COPD, 600 mg three times daily) was “increased” and the “effectiveness of 72-hour oral regimen” value [9] was “as effective as the 24-hour regimen”.
